Where two headings read alike, the source gives them in different places.
How the values were obtained:
mice = assay: Glucose tolerance test (GTT); type: in vivo, mouse; conditions: 24 h GTT, s.c., percent of vehicle
Procedure, shortened: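 Compounds diluted in PBS from 1 mM DMSO stocks and given subcutaneously 15 min (5-6 h fast), 4 h (16 h overnight fast), 16 h or 24 h before intraperitoneal glucose (2 g/kg). Tail blood glucose read at 10–120 min post-glucose, at least 6 mice per time-point. Glucose AUC over time determined.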

GLP-1R [1] = molecular target: T1, GLP-1R (Homo sapiens, UniProt P43220); assay: PathHunter β-arrestin assay; type: cell-based
Procedure, shortened: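 Recruitment of β-arrestin is measured by luminescence after cells, plated overnight, receive serially diluted agonist for 90 min at 37 °C in medium with 0.2% BSA. Detection reagent then develops for 3 h at room temperature, protected from light.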

GIP-R = molecular target: T2, GIP-R (Homo sapiens, UniProt P48546); assay: HitHunter cAMP assay (GIP-R); type: cell-based; conditions: cAMP; for Emax: read-out: (Emax) GIP-R
T2 sequence (P48546 22-466): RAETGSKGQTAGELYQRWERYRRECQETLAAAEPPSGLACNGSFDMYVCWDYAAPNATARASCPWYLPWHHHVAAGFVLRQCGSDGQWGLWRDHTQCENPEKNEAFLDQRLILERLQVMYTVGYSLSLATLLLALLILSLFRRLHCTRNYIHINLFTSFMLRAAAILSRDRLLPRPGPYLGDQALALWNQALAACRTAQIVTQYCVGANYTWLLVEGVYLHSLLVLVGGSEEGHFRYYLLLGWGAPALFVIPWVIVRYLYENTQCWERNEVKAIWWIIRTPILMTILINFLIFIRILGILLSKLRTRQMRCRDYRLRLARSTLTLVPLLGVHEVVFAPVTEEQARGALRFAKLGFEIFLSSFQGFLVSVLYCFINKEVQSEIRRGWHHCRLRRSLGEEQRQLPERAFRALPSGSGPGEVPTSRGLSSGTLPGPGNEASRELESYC
Procedure, shortened: (§1)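 Agonist stimulation lasts 30 min at room temperature on 10,000 cells per well, with phosphodiesterase blocked by 625 μM IBMX. Accumulated cAMP is quantified by competitive antibody luminescence after overnight development.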

GLP-1R [2] = molecular target: T1, GLP-1R; assay: HitHunter cAMP assay (GLP-1R); type: cell-based; conditions: cAMP; for Emax: read-out: (Emax) GLP-1R
Procedure, shortened: as §1

[3] = PathHunter β-arrestin assay, read-out: β-arrestin activity EC50
[4] = Table 3, read-out: EC50 GIP-R/nM
[5] = Table 3A, read-out: EC50 GIP-R/nM
[6] = Table 3, read-out: EC50 GLP-1R/nM
[7] = Table 3A, read-out: EC50 GLP-1R/nM

T1 sequence (P43220 24-463): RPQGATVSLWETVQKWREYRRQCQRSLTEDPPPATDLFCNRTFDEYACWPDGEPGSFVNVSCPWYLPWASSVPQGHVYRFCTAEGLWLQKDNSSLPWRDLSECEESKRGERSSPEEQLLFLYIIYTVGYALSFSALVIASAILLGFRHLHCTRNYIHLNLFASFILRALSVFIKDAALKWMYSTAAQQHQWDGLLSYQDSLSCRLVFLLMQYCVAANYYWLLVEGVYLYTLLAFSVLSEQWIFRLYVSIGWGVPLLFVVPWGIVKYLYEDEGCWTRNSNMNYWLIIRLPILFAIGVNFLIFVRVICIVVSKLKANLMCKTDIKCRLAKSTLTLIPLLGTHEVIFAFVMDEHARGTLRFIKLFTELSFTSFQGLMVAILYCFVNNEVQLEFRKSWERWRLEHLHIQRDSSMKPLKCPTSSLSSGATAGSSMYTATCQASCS

Row | Structure (SMILES) | AUC score (mice; dose range 2-5 nmol/kg) | EC50 (GLP-1R [1]) | EC50 (GIP-R; EC50 GIP-R/nM, Table 3) | EC50 (GIP-R; EC50 GIP-R/nM, Table 3A) | Emax (GIP-R; Table 3) | Emax (GIP-R; Table 3A) | EC50 (GLP-1R [2]; EC50 GLP-1R/nM, Table 3) | EC50 (GLP-1R [2]; EC50 GLP-1R/nM, Table 3A) | Emax (GLP-1R [2]; Table 3) | Emax (GLP-1R [2]; Table 3A) | EC50 (GLP-1R [1]; [3]) | EC50 (GIP-R; [4]) | EC50 (GIP-R; [5]) | EC50 (GLP-1R [2]; [6]) | EC50 (GLP-1R [2]; [7]) | AUC score (mice; dose range 5.1-15 nmol/kg) | Emax at 1 µM (GIP-R; read-out: (Emax) GIP-R at 1 μM, Table 3, at 1 μM)
1 | CCCCCCCCCCCCCCCC(=O)N[C@@H](CCC(=O)NCCCC[C@H](NC(=O)[C@H](CO)NC(=O)[C@@H]1CCCN1C(=O)[C@@H]1CCCN1C(=O)[C@@H]1CCCN1C(=O)[C@H](C)NC(=O)CNC(=O)[C@H](CO)NC(=O)[C@H](CO)NC(=O)[C@@H]1CCCN1C(=O)CNC(=O)CNC(=O)[C@H](C)NC(=O)[C@H](CC(C)C)NC(=O)[C@H](CC(C)C)NC(=O)[C@H](Cc1c[nH]c2ccccc12)NC(=O)[C@H](CC(N)=O)NC(=O)[C@@H](NC(=O)[C@H](Cc1ccccc1)NC(=O)[C@H](CCC(=O)O)NC(=O)C(C)(C)NC(=O)[C@H](C)NC(=O)[C@H](C)NC(=O)[C@H](CCC(N)=O)NC(=O)[C@H](CCCCN)NC(=O)[C@H](CC(=O)O)NC(=O)[C@H](CC(C)C)NC(=O)[C@H](Cc1ccc(O)cc1)NC(=O)[C@@H](NC(=O)[C@H](CO)NC(=O)[C@H](Cc1ccc(O)cc1)NC(=O)[C@H](CC(=O)O)NC(=O)[C@H](CO)NC(=O)[C@@H](NC(=O)[C@H](Cc1ccccc1)NC(=O)[C@@H](NC(=O)CNC(=O)[C@H](CCC(=O)O)NC(=O)CSCC(=O)NCCN1C(=O)CCC(C)(C)C1=O)[C@@H](C)O)[C@@H](C)O)[C@@H](C)CC)C(C)C)C(N)=O)C(=O)O [Compound 81] | 3 (AUC score 3 = 51-75%) | > 1000 nM | 0.1 to 1 nM | 0.1 to 1 nM | 89% | 89% | 0.1 to 1 nM | 0.1 to 1 nM | 96% | 96% |  |  |  |  |  |  | 
2 | CCCCCCCCCCCCCCCC(=O)N[C@@H](CCC(=O)NCCCC[C@H](NC(=O)[C@H](CO)NC(=O)[C@@H]1CCCN1C(=O)[C@@H]1CCCN1C(=O)[C@@H]1CCCN1C(=O)[C@H](C)NC(=O)CNC(=O)[C@H](CO)NC(=O)[C@H](CO)NC(=O)[C@@H]1CCCN1C(=O)CNC(=O)CNC(=O)[C@H](C)NC(=O)[C@H](CC(C)C)NC(=O)[C@H](CC(C)C)NC(=O)[C@H](Cc1c[nH]c2ccccc12)NC(=O)[C@H](CC(N)=O)NC(=O)[C@@H](NC(=O)[C@H](Cc1ccccc1)NC(=O)[C@H](CCC(=O)O)NC(=O)C(C)(C)NC(=O)[C@H](C)NC(=O)[C@H](C)NC(=O)[C@H](CCC(N)=O)NC(=O)[C@H](CCCCN)NC(=O)[C@H](CC(=O)O)NC(=O)[C@H](CC(C)C)NC(=O)[C@H](Cc1ccc(O)cc1)NC(=O)[C@@H](NC(=O)[C@H](CO)NC(=O)[C@H](Cc1ccc(O)cc1)NC(=O)[C@H](CC(=O)O)NC(=O)[C@H](CO)NC(=O)[C@@H](NC(=O)[C@H](Cc1ccccc1)NC(=O)[C@@H](NC(=O)CNC(=O)[C@H](CCC(=O)O)NC(=O)CSCC(=O)NCCN1CCCC1=O)[C@@H](C)O)[C@@H](C)O)[C@@H](C)CC)C(C)C)C(N)=O)C(=O)O [Compound 83] | 2 (AUC score 2 = 26-50%) |  |  |  | 73% | 73% |  |  | 106% | 106% | > 1000 nM | 1 to 10 nM | 1 to 10 nM | 0.1 to 1 nM | 0.1 to 1 nM |  | 
3 | CCCCCCCCCCCCCCCC(=O)N[C@@H](CCC(=O)NCCCC[C@H](NC(=O)[C@H](CO)NC(=O)[C@@H]1CCCN1C(=O)[C@@H]1CCCN1C(=O)[C@@H]1CCCN1C(=O)[C@H](C)NC(=O)CNC(=O)[C@H](CO)NC(=O)[C@H](CO)NC(=O)[C@@H]1CCCN1C(=O)CNC(=O)CNC(=O)[C@H](C)NC(=O)[C@H](CC(C)C)NC(=O)[C@H](CC(C)C)NC(=O)[C@H](Cc1c[nH]c2ccccc12)NC(=O)[C@H](CC(N)=O)NC(=O)[C@@H](NC(=O)[C@H](Cc1ccccc1)NC(=O)[C@H](CCC(=O)O)NC(=O)C(C)(C)NC(=O)[C@H](C)NC(=O)[C@H](C)NC(=O)[C@H](CCC(N)=O)NC(=O)[C@H](CCCCN)NC(=O)[C@H](CC(=O)O)NC(=O)[C@H](CC(C)C)NC(=O)[C@H](Cc1ccc(O)cc1)NC(=O)[C@@H](NC(=O)[C@H](CO)NC(=O)[C@H](Cc1ccc(O)cc1)NC(=O)[C@H](CC(=O)O)NC(=O)[C@H](CO)NC(=O)[C@@H](NC(=O)[C@H](Cc1ccccc1)NC(=O)[C@@H](NC(=O)CNC(=O)[C@H](CCC(=O)O)NC(=O)CSCC(=O)N1CCNC1=O)[C@@H](C)O)[C@@H](C)O)[C@@H](C)CC)C(C)C)C(N)=O)C(=O)O [Compound 98] |  |  |  |  |  |  |  |  | 96% | 96% | > 1000 nM | > 1000 nM | > 1000 nM | 0.1 to 1 nM | 0.1 to 1 nM | 2 (AUC score 2 = 26-50%) | < 5%
4 | CCCCCCCCCCCCCCCC(=O)N[C@@H](CCC(=O)NCCCC[C@H](NC(=O)[C@H](CO)NC(=O)[C@@H]1CCCN1C(=O)[C@@H]1CCCN1C(=O)[C@@H]1CCCN1C(=O)[C@H](C)NC(=O)CNC(=O)[C@H](CO)NC(=O)[C@H](CO)NC(=O)[C@@H]1CCCN1C(=O)CNC(=O)CNC(=O)[C@H](C)NC(=O)[C@H](CC(C)C)NC(=O)[C@H](CC(C)C)NC(=O)[C@H](Cc1c[nH]c2ccccc12)NC(=O)[C@H](CC(N)=O)NC(=O)[C@@H](NC(=O)[C@H](Cc1ccccc1)NC(=O)[C@H](CCC(=O)O)NC(=O)C(C)(C)NC(=O)[C@H](C)NC(=O)[C@H](C)NC(=O)[C@H](CCC(N)=O)NC(=O)[C@H](CCCCN)NC(=O)[C@H](CC(=O)O)NC(=O)[C@H](CC(C)C)NC(=O)[C@H](Cc1ccc(O)cc1)NC(=O)[C@@H](NC(=O)[C@H](CO)NC(=O)[C@H](Cc1ccc(O)cc1)NC(=O)[C@H](CC(=O)O)NC(=O)[C@H](CO)NC(=O)[C@@H](NC(=O)[C@H](Cc1ccccc1)NC(=O)[C@@H](NC(=O)CNC(=O)[C@H](CCC(=O)O)NC(=O)CSCC(=O)NCCN1C(=O)CCC1=O)[C@@H](C)O)[C@@H](C)O)[C@@H](C)CC)C(C)C)C(N)=O)C(=O)O [Compound 114] | 3 (AUC score 3 = 51-75%) |  |  |  | 42 to 63% | 42 to 63% |  |  | 94 to 103% | 94 to 103% | > 1000 nM | 1 to 10 nM | 1 to 10 nM | 0.1 to 10 nM | 0.1 to 10 nM |  | 
5 | CCCCCCCCCCCCCCCC(=O)N[C@@H](CCC(=O)NCCCC[C@H](NC(=O)[C@H](CO)NC(=O)[C@@H]1CCCN1C(=O)[C@@H]1CCCN1C(=O)[C@@H]1CCCN1C(=O)[C@H](C)NC(=O)CNC(=O)[C@H](CO)NC(=O)[C@H](CO)NC(=O)[C@@H]1CCCN1C(=O)CNC(=O)CNC(=O)[C@H](C)NC(=O)[C@H](CC(C)C)NC(=O)[C@H](CC(C)C)NC(=O)[C@H](Cc1c[nH]c2ccccc12)NC(=O)[C@H](CC(N)=O)NC(=O)[C@@H](NC(=O)[C@H](Cc1ccccc1)NC(=O)[C@H](CCC(=O)O)NC(=O)C(C)(C)NC(=O)[C@H](C)NC(=O)[C@H](C)NC(=O)[C@H](CCC(N)=O)NC(=O)[C@H](CCCCN)NC(=O)[C@H](CC(=O)O)NC(=O)[C@H](CC(C)C)NC(=O)[C@H](Cc1ccc(O)cc1)NC(=O)[C@@H](NC(=O)[C@H](CO)NC(=O)[C@H](Cc1ccc(O)cc1)NC(=O)[C@H](CC(=O)O)NC(=O)[C@H](CO)NC(=O)[C@@H](NC(=O)[C@H](Cc1ccccc1)NC(=O)[C@@H](NC(=O)CNC(=O)[C@H](CCC(=O)O)NC(=O)CSCC(=O)NCCN1C(=O)CSC1=O)[C@@H](C)O)[C@@H](C)O)[C@@H](C)CC)C(C)C)C(N)=O)C(=O)O [Compound 195] | 2 (AUC score 2 = 26-50%) |  |  |  | 46 to 87% | 46 to 87% |  |  | 93 to 113% | 93 to 113% | > 1000 nM | 0.1 to 10 nM | 0.1 to 10 nM |  | 0.1 to 10 nM |  | 
